6 compounds from patent publication US6881747B2, “Small molecules for inhibition of function and drug delivery to leukocytes” (Science & Technology Corporation @UNM, priority 2002, dated 2005) can be followed below.

pKd: −log10 of the molar value.

The target in the assay is LFA-1 (Homo sapiens, UniProt P20701). Nature of the assay: Affinity (KD) of derivatives for LFA-1. It counts as binding. The conditions noted are these: affinity for LFA-1; read-out: KD (Affinity constant).
Chain of LFA-1 (P20701 26-1170): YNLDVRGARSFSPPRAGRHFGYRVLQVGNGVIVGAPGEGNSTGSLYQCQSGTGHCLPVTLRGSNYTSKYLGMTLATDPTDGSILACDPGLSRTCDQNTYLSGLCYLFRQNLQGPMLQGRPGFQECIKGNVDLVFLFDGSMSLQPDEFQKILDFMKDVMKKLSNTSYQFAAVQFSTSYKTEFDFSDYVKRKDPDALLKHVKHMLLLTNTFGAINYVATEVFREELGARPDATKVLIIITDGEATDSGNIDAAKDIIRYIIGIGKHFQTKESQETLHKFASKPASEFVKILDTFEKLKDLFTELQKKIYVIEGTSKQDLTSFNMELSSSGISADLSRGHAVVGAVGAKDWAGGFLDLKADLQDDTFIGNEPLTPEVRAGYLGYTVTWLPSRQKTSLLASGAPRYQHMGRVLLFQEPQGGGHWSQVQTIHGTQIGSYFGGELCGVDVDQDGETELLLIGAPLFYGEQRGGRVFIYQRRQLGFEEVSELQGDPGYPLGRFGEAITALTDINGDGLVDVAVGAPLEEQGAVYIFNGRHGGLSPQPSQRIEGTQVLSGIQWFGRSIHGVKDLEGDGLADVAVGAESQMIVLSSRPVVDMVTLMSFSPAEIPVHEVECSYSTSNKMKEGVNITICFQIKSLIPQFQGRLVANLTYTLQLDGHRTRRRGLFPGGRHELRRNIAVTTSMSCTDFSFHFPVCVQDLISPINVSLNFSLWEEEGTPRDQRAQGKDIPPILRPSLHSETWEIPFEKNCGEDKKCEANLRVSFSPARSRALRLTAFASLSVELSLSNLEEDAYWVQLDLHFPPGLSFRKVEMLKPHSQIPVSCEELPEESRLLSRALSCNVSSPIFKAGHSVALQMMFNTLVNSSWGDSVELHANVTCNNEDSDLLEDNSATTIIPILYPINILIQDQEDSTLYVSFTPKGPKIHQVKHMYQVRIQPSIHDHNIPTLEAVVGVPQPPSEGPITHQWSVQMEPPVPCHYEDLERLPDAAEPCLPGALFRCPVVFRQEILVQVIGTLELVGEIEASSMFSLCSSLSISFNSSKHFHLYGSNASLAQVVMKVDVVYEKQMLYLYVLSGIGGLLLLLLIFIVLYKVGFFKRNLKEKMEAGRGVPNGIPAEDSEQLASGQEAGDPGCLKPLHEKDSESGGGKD
Chain of LFA-1 (P05107 23-769 partner): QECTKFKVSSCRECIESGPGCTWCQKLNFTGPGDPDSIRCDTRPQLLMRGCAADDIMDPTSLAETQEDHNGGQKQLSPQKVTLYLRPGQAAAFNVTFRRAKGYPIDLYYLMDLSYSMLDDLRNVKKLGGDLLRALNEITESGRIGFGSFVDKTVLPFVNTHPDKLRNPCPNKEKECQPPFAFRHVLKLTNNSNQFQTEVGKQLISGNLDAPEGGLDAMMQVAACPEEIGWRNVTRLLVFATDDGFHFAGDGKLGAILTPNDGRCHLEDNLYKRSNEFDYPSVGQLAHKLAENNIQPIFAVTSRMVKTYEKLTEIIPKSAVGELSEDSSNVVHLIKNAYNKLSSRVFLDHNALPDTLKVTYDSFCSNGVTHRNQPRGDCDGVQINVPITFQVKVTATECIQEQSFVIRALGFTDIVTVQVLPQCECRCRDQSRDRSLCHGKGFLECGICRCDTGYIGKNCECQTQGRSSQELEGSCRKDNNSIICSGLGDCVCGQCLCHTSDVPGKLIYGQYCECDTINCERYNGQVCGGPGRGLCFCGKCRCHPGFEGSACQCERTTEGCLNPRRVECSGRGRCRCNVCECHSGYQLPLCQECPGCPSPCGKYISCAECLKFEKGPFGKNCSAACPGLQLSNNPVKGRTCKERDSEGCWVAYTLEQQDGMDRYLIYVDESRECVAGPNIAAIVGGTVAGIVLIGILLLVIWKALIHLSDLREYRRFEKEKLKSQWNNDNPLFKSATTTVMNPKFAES
Usually pKd stands for the Kd on a negative log10 scale, so that one unit is a factor of ten. In the case of `CN1C(=O)N(c2cc(Cl)cc(Cl)c2)C(=O)[C@@H]1Cc1ccccc1` [JEB I-24], the pKd is 5.92. Regarding “5-(4-bromobenzyl)-3-(3,5-dichlorophenyl)-5-methyl-imidazolidine-2,4-dione-1-(1-butyl-4-fluoresceincarbamide) [Fluorescein- Butylamino- Nor-BIRT]”, the pKd is 6.94.

In the case of `CN1C(=O)N(c2cc(Cl)cc(Cl)c2)C(=O)[C@H]1Cc1ccccc1` [JEB I-22], the pKd is 5.91.

As for `O=C1N[C@H](Cc2ccccc2)C(=O)N1c1cc(Cl)cc(Cl)c1` [JEB I-19], the pKd is 6.21.

Take `O=C1N[C@@H](Cc2ccccc2)C(=O)N1c1cc(Cl)cc(Cl)c1` [JEB I-18]: the pKd is 5.44. Then `C[C@@]1(Cc2ccc(Br)cc2)C(=O)N(c2cc(Cl)cc(Cl)c2)C(=O)N1CCCCN` [Butylamino- Nor-BIRT, 1-(4-aminobutyl)-5-(4-bromobenzyl)-3-(3,5-dichlorophenyl)-5-methyl-imidazolidine-2,4-dione], with 7.12.
